From patent US11919899B2, “Substituted 1-(3,3-difluoropiperidin-4-yl)-imidazo[4,5-c] quinolin-2-one compounds with blood-brain barrier penetrable capability” (priority 2020, dated 2024)

What was measured:
BCRP = biological target: T1, BCRP (Homo sapiens, UniProt Q9UNQ0); test: BCRP efflux substrate; format: in vitro ADME; conditions: not told
T1 sequence (Q9UNQ0 1-655): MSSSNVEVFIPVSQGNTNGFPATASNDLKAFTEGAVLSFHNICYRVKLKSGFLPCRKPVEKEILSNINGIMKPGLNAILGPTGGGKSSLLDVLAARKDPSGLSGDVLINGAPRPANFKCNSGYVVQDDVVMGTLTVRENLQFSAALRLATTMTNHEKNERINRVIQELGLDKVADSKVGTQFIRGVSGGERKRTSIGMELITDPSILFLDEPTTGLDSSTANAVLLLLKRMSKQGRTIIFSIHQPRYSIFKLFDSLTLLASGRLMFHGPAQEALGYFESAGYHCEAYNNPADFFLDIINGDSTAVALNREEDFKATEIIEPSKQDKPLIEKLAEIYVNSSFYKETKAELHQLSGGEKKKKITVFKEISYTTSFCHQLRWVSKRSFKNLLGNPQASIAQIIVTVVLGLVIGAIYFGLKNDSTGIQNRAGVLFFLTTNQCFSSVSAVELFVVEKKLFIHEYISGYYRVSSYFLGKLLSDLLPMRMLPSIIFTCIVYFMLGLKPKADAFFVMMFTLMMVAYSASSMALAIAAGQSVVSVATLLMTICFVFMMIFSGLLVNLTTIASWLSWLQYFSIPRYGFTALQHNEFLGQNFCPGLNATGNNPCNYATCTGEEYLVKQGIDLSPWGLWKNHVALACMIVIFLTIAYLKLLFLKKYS

P-glycoprotein = P-glycoprotein (Homo sapiens, UniProt P08183); test: P-glycoprotein efflux substrate; format: in vitro ADME; conditions: not told
[1] = Blood-brain barrier penetration (brain tissue to plasma concentration ratio); format: in vivo; conditions: ratio of concentration in brain tissue to plasma; rats or mice, four hours after dosing
Method: Four hours after dosing, rats or mice were sacrificed, blood and brain tissue were collected and the concentration of the test compound was analyzed. Brain permeation is defined as the ratio of the concentration of the compound in the brain tissue to the concentration in the plasma. P-glycoprotein and BCRP (Breast Cancer Resistance Protein) are the blood-brain barrier efflux proteins, the P-glycoprotein substrate (Efflux ratio>1.5) and/or BCRP substrate (Efflux ratio>1.5) is out of the brain.

Sequence of P-glycoprotein (P08183 whole entry): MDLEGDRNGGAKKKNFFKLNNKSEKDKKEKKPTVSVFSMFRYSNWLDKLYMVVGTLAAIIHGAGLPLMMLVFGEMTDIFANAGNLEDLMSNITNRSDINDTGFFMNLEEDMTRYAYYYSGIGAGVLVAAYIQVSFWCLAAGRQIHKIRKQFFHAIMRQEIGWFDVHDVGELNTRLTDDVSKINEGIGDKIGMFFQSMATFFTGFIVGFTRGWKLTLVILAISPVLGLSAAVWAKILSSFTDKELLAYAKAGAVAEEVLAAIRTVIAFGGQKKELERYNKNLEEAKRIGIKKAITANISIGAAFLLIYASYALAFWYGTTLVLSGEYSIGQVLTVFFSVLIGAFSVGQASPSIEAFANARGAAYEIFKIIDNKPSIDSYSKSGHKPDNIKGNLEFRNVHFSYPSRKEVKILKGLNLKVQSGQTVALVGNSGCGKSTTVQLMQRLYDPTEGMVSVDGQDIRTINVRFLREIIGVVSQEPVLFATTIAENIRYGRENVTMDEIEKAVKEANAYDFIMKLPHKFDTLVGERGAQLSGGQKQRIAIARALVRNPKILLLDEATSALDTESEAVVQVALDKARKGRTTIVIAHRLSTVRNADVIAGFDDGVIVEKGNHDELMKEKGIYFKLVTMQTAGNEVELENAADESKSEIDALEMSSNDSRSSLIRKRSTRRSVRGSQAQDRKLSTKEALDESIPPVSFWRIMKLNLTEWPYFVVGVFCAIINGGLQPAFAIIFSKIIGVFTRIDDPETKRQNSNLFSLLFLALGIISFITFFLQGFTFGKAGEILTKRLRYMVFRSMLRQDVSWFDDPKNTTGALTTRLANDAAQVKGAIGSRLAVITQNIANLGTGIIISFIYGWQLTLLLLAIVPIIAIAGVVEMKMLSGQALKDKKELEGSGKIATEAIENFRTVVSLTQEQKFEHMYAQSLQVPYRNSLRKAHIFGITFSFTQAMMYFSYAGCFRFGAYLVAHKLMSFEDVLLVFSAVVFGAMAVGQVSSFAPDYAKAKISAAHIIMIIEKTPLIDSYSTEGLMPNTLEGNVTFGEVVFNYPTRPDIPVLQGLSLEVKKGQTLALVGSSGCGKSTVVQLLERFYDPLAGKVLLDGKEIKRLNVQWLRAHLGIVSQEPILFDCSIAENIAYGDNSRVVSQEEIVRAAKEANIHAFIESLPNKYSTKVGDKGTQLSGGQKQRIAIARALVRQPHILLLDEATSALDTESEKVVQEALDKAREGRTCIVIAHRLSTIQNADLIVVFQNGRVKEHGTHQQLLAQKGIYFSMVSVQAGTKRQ

SMILES	efflux ratio (BCRP)	efflux ratio (P-glycoprotein)	Kp at 4 h [1]
CCN1CCC(n2c(=O)n(C)c3cnc4ccc(-c5ccc(OC)nc5)cc4c32)C(F)(F)C1 (racemic) [Compound 2, (R/S)-1-(1-ethyl-3,3-difluoropiperidin-4-yl)-8-(6-methoxypyridin-3-yl)-3-methyl-1,3-dihydro-2H-imidazo[4,5-c]quinolin-2-one]	< 1	< 1	> 0.3
COc1ccc(-c2ccc3ncc4c(c3c2)n(C2CCN(C(C)C)CC2(F)F)c(=O)n4C)cn1 (racemic) [Compound 3, (R/S)-1-(3,3-difluoro-1-isopropylpiperidin-4-yl)-8-(6-methoxypyridin-3-yl)-3-methyl-1,3-dihydro-2H-imidazo[4,5-c]quinolin-2-one]	< 1	< 1	> 0.3
CCOc1ccc(-c2ccc3ncc4c(c3c2)n(C2CCN(C)CC2(F)F)c(=O)n4C)cn1 (racemic) [Compound 4, (R/S)-1-(3,3-difluoro-1-methylpiperidin-4-yl)-8-(6-ethoxypyridin-3-yl)-3-methyl-1,3-dihydro-2H-imidazo[4,5-c]quinolin-2-one]	< 1	< 1	> 0.3
COc1ccc(-c2cc3c(cc2F)ncc2c3n(C3CCN(C)CC3(F)F)c(=O)n2C)cn1 (racemic) [Compound 5, (R/S)-1-(3,3-difluoro-1-methylpiperidin-4-yl)-7-fluoro-8-(6-methoxypyridin-3-yl)-3-methyl-1,3-dihydro-2H-imidazo[4,5-c]quinolin-2-one]	< 1	< 1	> 0.3
CC(C)Oc1ccc(-c2ccc3ncc4c(c3c2)n(C2CCN(C)CC2(F)F)c(=O)n4C)cn1 (racemic) [Compound 7, (R/S)-1-(3,3-difluoro-1-methylpiperidin-4-yl)-8-(6-isopropoxypyridin-3-yl)-3-methyl-1,3-dihydro-2H-imidazo[4,5-c]quinolin-2-one]	< 1	< 1	> 0.3
CN1CCC(n2c(=O)n(C)c3cnc4ccc(-c5ccc(N(C)C)nc5)cc4c32)C(F)(F)C1 (racemic) [Compound 8, (R/S)-1-(3,3-difluoro-1-methylpiperidin-4-yl)-8-(6-(dimethylamino)pyridin-3-yl)-3-methyl-1,3-dihydro-2H-imidazo[4,5-c]quinolin-2-one]	< 1	< 1	> 0.3
CN1CCC(n2c(=O)n(C)c3cnc4ccc(-c5ccc(OC6CC6)nc5)cc4c32)C(F)(F)C1 (racemic) [Compound 10, (R/S)-8-(6-cyclopropoxypyridin-3-yl)-1-(3,3-difluoro-1-methylpiperidin-4-yl)-3-methyl-1,3-dihydro-2H-imidazo[4,5-c]quinolin-2-one]	< 1	< 1	> 0.3
CN1CCC(n2c(=O)n(C)c3cnc4ccc(-c5ccc(N6CC(N(C)C)C6)nc5)cc4c32)C(F)(F)C1 (racemic) [Compound 11, (R/S)-1-(3,3-difluoro-1-methylpiperidin-4-yl)-8-(6-(3-(dimethylamino)azetidin-1-yl)pyridin-3-yl)-3-methyl-1,3-dihydro-2H-imidazo[4,5-c]quinolin-2-one]	< 1	< 1	> 0.3
CN1CCC(n2c(=O)n(C)c3cnc4ccc(-c5ccc(N6CC7C6CCN7C)nc5)cc4c32)C(F)(F)C1 (racemic) [Compound 13, (R/S)-1-(3,3-difluoro-1-methylpiperidin-4-yl)-3-methyl-8-(6-((1R,5R/1S,5S)-(2-methyl-2,6-diazabicyclo[3.2.0]heptan-6-yl)pyridin-3-yl)-1,3-dihydro-2H-imidazo[4,5-c]quinolin-2-one]	< 1	< 1	> 0.3
CCN1CC[C@@H](n2c(=O)n(C)c3cnc4ccc(-c5ccc(OC)nc5)cc4c32)C(F)(F)C1 [Compound 15, (R)-1-(1-ethyl-3,3-difluoropiperidin-4-yl)-8-(6-methoxypyridin-3-yl)-3-methyl-1,3-dihydro-2H-imidazo[4,5-c]quinolin-2-one]	< 1	< 1	> 0.3
COc1ccc(-c2ccc3ncc4c(c3c2)n([C@@H]2CCN(C(C)C)CC2(F)F)c(=O)n4C)cn1 [Compound 16, (R)-1-(3,3-difluoro-1-isopropylpiperidin-4-yl)-8-(6-methoxypyridin-3-yl)-3-methyl-1,3-dihydro-2H-imidazo[4,5-c]quinolin-2-one]	< 1	< 1	> 0.3
CCOc1ccc(-c2ccc3ncc4c(c3c2)n([C@@H]2CCN(C)CC2(F)F)c(=O)n4C)cn1 [Compound 17, (R)-1-(3,3-difluoro-1-methylpiperidin-4-yl)-8-(6-ethoxypyridin-3-yl)-3-methyl-1,3-dihydro-2H-imidazo[4,5-c]quinolin-2-one]	< 1	< 1	> 0.3
COc1ccc(-c2cc3c(cc2F)ncc2c3n([C@@H]3CCN(C)CC3(F)F)c(=O)n2C)cn1 [Compound 18, (R)-1-(3,3-difluoro-1-methylpiperidin-4-yl)-7-fluoro-8-(6-methoxypyridin-3-yl)-3-methyl-1,3-dihydro-2H-imidazo[4,5-c]quinolin-2-one]	< 1	< 1	> 0.3
CC(C)Oc1ccc(-c2ccc3ncc4c(c3c2)n([C@@H]2CCN(C)CC2(F)F)c(=O)n4C)cn1 [Compound 20, (R)-1-(3,3-difluoro-1-methylpiperidin-4-yl)-8-(6-isopropoxypyridin-3-yl)-3-methyl-1,3-dihydro-2H-imidazo[4,5-c]quinolin-2-one]	< 1	< 1	> 0.3
CN1CC[C@@H](n2c(=O)n(C)c3cnc4ccc(-c5ccc(N(C)C)nc5)cc4c32)C(F)(F)C1 [Compound 21, (R)-1-(3,3-difluoro-1-methylpiperidin-4-yl)-8-(6-(dimethylamino)pyridin-3-yl)-3-methyl-1,3-dihydro-2H-imidazo[4,5-c]quinolin-2-one]	< 1	< 1	> 0.3
CN1CC[C@@H](n2c(=O)n(C)c3cnc4ccc(-c5ccc(OC6CC6)nc5)cc4c32)C(F)(F)C1 [Compound 23, (R)-8-(6-cyclopropoxypyridin-3-yl)-1-(3,3-difluoro-1-methylpiperidin-4-yl)-3-methyl-1,3-dihydro-2H-imidazo[4,5-c]quinolin-2-one]	< 1	< 1	> 0.3
CN1CC[C@@H](n2c(=O)n(C)c3cnc4ccc(-c5ccc(N6CC(N(C)C)C6)nc5)cc4c32)C(F)(F)C1 [Compound 24, (R)-1-(3,3-difluoro-1-methylpiperidin-4-yl)-8-(6-(3-(dimethylamino)azetidin-1-yl)pyridin-3-yl)-3-methyl-1,3-dihydro-2H-imidazo[4,5-c]quinolin-2-one]	< 1	< 1	> 0.3
CN1CC[C@@H](n2c(=O)n(C)c3cnc4ccc(-c5ccc(N6C[C@@H]7[C@H]6CCN7C)nc5)cc4c32)C(F)(F)C1 [Compound 26]	< 1	< 1	> 0.3
CN1CC[C@@H](n2c(=O)n(C)c3cnc4ccc(-c5ccc(N6C[C@H]7[C@@H]6CCN7C)nc5)cc4c32)C(F)(F)C1 [Compound 27]	< 1	< 1	> 0.3
CCN1CC[C@H](n2c(=O)n(C)c3cnc4ccc(-c5ccc(OC)nc5)cc4c32)C(F)(F)C1 [Compound 29, (S)-1-(1-ethyl-3,3-difluoropiperidin-4-yl)-8-(6-methoxypyridin-3-yl)-3-methyl-1,3-dihydro-2H-imidazo[4,5-c]quinolin-2-one]	< 1	< 1	> 0.3
COc1ccc(-c2ccc3ncc4c(c3c2)n([C@H]2CCN(C(C)C)CC2(F)F)c(=O)n4C)cn1 [Compound 30, (S)-1-(3,3-difluoro-1-isopropylpiperidin-4-yl)-8-(6-methoxypyridin-3-yl)-3-methyl-1,3-dihydro-2H-imidazo[4,5-c]quinolin-2-one]	< 1	< 1	> 0.3
CCOc1ccc(-c2ccc3ncc4c(c3c2)n([C@H]2CCN(C)CC2(F)F)c(=O)n4C)cn1 [Compound 31, (S)-1-(3,3-difluoro-1-methylpiperidin-4-yl)-8-(6-ethoxypyridin-3-yl)-3-methyl-1,3-dihydro-2H-imidazo[4,5-c]quinolin-2-one]	< 1	< 1	> 0.3
